Several values for one entry are separate records, joined by “and”; a condition that tells them apart may be missing. Equal entries are not always repeated.

The experiment deals with 292921-168-R-J2-PDC complex spheroid growth. Briefly: Anticancer human tumor 292921-168-R-J2-PDC patient-derived pancreatic carcinoma cell line growth inhibition [AhR]. The conditions noted are these: for viability, T/C: stronger effect = lower value. Put shortly:
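Complex tumor spheroids co-cultured with HUVEC and human MSC stroma; AhR antagonists tested in combination with standard-of-care and investigational agents. Top concentration at or near clinical Cmax (else 10 microM), half-log dilutions; growth expressed as percent test/control.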

The mark [1] stands for this setting: curve of first compound, second compound 0.1 µM.
[2] abbreviates: curve of first compound, second compound 0.316 µM.
The mark [3] stands for this setting: curve of first compound, second compound 1 µM.
[4] abbreviates: curve of first compound, second compound 3.16 µM.
Setting [5] is: curve of first compound, second compound 10 µM.
Setting [6] is: second compound 0.1 µM, first compound 0.0316 µM.
The mark [7] stands for this setting: second compound 0.1 µM, first compound 0.1 µM.
The mark [8] stands for this setting: second compound 0.1 µM, first compound 0.316 µM.
[9] abbreviates: second compound 0.1 µM, first compound 1 µM.
Setting [10] is: second compound 0.1 µM, first compound 3.16 µM.
[11] abbreviates: second compound 0.1 µM, first compound 10 µM.
The mark [12] stands for this setting: second compound 0.316 µM, first compound 0.0316 µM.
The mark [13] stands for this setting: second compound 0.316 µM, first compound 0.1 µM.
Setting [14] is: second compound 0.316 µM, first compound 0.316 µM.
Setting [15] is: second compound 0.316 µM, first compound 1 µM.
[16] abbreviates: second compound 0.316 µM, first compound 3.16 µM.
Where [17] appears, read: second compound 0.316 µM, first compound 10 µM.
[18] abbreviates: second compound 1 µM, first compound 0.0316 µM.
Setting [19] is: second compound 1 µM, first compound 0.1 µM.
Where [20] appears, read: second compound 1 µM, first compound 0.316 µM.
[21] abbreviates: second compound 1 µM, first compound 1 µM.
[22] abbreviates: second compound 1 µM, first compound 3.16 µM.
Setting [23] is: second compound 1 µM, first compound 10 µM.
The mark [24] stands for this setting: second compound 3.16 µM, first compound 0.0316 µM.
Setting [25] is: second compound 3.16 µM, first compound 0.1 µM.
[26] abbreviates: second compound 3.16 µM, first compound 0.316 µM.
Where [27] appears, read: second compound 3.16 µM, first compound 1 µM.
[28] abbreviates: second compound 3.16 µM, first compound 3.16 µM.
[29] abbreviates: second compound 3.16 µM, first compound 10 µM.
Setting [30] is: second compound 10 µM, first compound 0.0316 µM.
Setting [31] is: second compound 10 µM, first compound 0.1 µM.
Setting [32] is: second compound 10 µM, first compound 0.316 µM.
[33] abbreviates: second compound 10 µM, first compound 1 µM.
The mark [34] stands for this setting: second compound 10 µM, first compound 3.16 µM.
Setting [35] is: second compound 10 µM, first compound 10 µM.
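Note: spheroids exposed to compounds for seven days after three days of growth.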

As usually defined, the IC50 is the concentration that inhibits the measured activity by half. In general, viability, T/C refers to the result in the treated group divided by that in the control group, in per cent. In the case of `O=C(c1cc(Cc2n[nH]c(=O)c3ccccc23)ccc1F)N1CCN(C(=O)C2CC2)CC1` + CC(CO)NC(=O)c1cc(-c2ccc(Cl)cc2)nn(-c2cnn(C)c2)c1=O, the IC50 is, setting by setting: under setting [1], greater than 10000 nM; under setting [2], greater than 10000 nM; under setting [3], greater than 10000 nM; under setting [4], greater than 10000 nM; under setting [5], greater than 10000 nM. Moreover, the viability, T/C is 100% under setting [6]; 96.1% under setting [7]; 92.4% under setting [8]; 98.8% under setting [9]; 78.4% under setting [10]; 64% under setting [11]. Also, the viability, T/C by setting is: under setting [12], 97.4%; under setting [13], 98.4%; under setting [14], 99.4%; under setting [15], 90.1%; under setting [16], 74.3%; under setting [17], 66.7%. In addition, the viability, T/C is, setting by setting: under setting [18], 90.3%; under setting [19], 103%; under setting [20], 94.7%; under setting [21], 90.2%; under setting [22], 78.2%; under setting [23], 66.2%. The viability, T/C is 85.9% under setting [24]; 86% under setting [25]; 81.8% under setting [26]; 83.7% under setting [27]; 70.8% under setting [28]; 55.9% under setting [29]. Also, the viability, T/C is, setting by setting: under setting [30], 67.5%; under setting [31], 62.8%; under setting [32], 67.1%; under setting [33], 63.4%; under setting [34], 56.6%; under setting [35], 49%.
As for `COc1cccc2c1C(=O)c1c(O)c3c(c(O)c1C2=O)CC(O)(C(=O)CO)CC3OC1CC(N)C(O)C(C)O1` (stereo unspecified) + Cc1cncc(-c2nc(NCCc3c[nH]c4ccccc34)c3ncn(C(C)C)c3n2)c1, the IC50 was less than 31.6 nM under setting [1]; less than 31.6 nM under setting [2]; less than 31.6 nM under setting [3]; less than 31.6 nM under setting [4]; less than 31.6 nM under setting [5]. In addition, the viability, T/C reads like this: under setting [6], 30.9%; under setting [7], 25.2%; under setting [8], 9.88%; under setting [9], 0.21%; under setting [10], 0.78%; under setting [11], 2.79%. Further, the viability, T/C is, setting by setting: under setting [12], 30.6%; under setting [13], 23.2%; under setting [14], 9.81%; under setting [15], 0.2%; under setting [16], 0.66%; under setting [17], 2.98%. The viability, T/C is 29.3% under setting [18]; 22.7% under setting [19]; 9.15% under setting [20]; 0.34% under setting [21]; 1.61% under setting [22]; 3.01% under setting [23]. In addition, the viability, T/C is 26.8% under setting [24]; 22.1% under setting [25]; 9.58% under setting [26]; 0.2% under setting [27]; 1.48% under setting [28]; 3.82% under setting [29]. Moreover, the viability, T/C is, setting by setting: under setting [30], 25.3%; under setting [31], 21.3%; under setting [32], 10.8%; under setting [33], 0.46%; under setting [34], 2.04%; under setting [35], 4.23%.
For `CC(C)CC(NC(=O)C(Cc1ccccc1)NC(=O)c1cnccn1)B(O)O` (stereo unspecified), the viability, T/C (compound 0.000949 µM) is 106% and 109% and 104%; the viability, T/C (compound 0.003 µM) is 116% and 121% and 106%; the viability, T/C (compound 0.00949 µM) was 53.1% and 25.4% and 12.2%; the viability, T/C (compound 0.03 µM) was 3.87% and 2.27% and 1.64%; the viability, T/C (compound 0.0949 µM) was 0.72% and 0.67% and 0.85%; the viability, T/C (compound 0.3 µM) is 0.4% and 0.5% and 2.3%. Further, for the setting “curve of compound”, the IC50 is 10.2 nM and 6.92 nM and 5.94 nM.
For `CCN(c1cc(-c2ccc(CN3CCOCC3)cc2)cc(C(=O)NCc2c(C)cc(C)[nH]c2=O)c1C)C1CCOCC1` + Cc1ccccc1N=Nc1ccc(NC(=O)c2ccnn2C)c(C)c1, the IC50 reads like this: under setting [1], greater than 3000 nM; under setting [2], greater than 3000 nM; under setting [3], greater than 3000 nM; under setting [4], greater than 3000 nM; under setting [5], 1430 nM. Further, the viability, T/C (second compound 0.1 µM, first compound 0.00949 µM) is 98.1%; the viability, T/C (second compound 0.1 µM, first compound 0.03 µM) was 90.7%; the viability, T/C (second compound 0.1 µM, first compound 0.0949 µM) was 96.7%; the viability, T/C (second compound 0.1 µM, first compound 0.3 µM) was 89.5%; the viability, T/C (second compound 0.1 µM, first compound 0.949 µM) was 86%; the viability, T/C (second compound 0.1 µM, first compound 3 µM) was 80.5%. For the same molecule, the viability, T/C is 93.4% (second compound 0.316 µM, first compound 0.00949 µM); 85.2% (second compound 0.316 µM, first compound 0.03 µM); 81.7% (second compound 0.316 µM, first compound 0.0949 µM); 80.7% (second compound 0.316 µM, first compound 0.3 µM); 71.9% (second compound 0.316 µM, first compound 0.949 µM); 76.8% (second compound 0.316 µM, first compound 3 µM). For the same molecule, the viability, T/C is 82.1% (second compound 1 µM, first compound 0.00949 µM); 87.8% (second compound 1 µM, first compound 0.03 µM); 88.8% (second compound 1 µM, first compound 0.0949 µM); 79.1% (second compound 1 µM, first compound 0.3 µM); 85.7% (second compound 1 µM, first compound 0.949 µM); 69.5% (second compound 1 µM, first compound 3 µM). Further, the viability, T/C is 72.2% (second compound 3.16 µM, first compound 0.00949 µM); 74.9% (second compound 3.16 µM, first compound 0.03 µM); 72.5% (second compound 3.16 µM, first compound 0.0949 µM); 68.2% (second compound 3.16 µM, first compound 0.3 µM); 67.3% (second compound 3.16 µM, first compound 0.949 µM); 58.8% (second compound 3.16 µM, first compound 3 µM). In addition, the viability, T/C is, setting by setting: (second compound 10 µM, first compound 0.00949 µM) 57%; (second compound 10 µM, first compound 0.03 µM) 58.2%; (second compound 10 µM, first compound 0.0949 µM) 51%; (second compound 10 µM, first compound 0.3 µM) 57.4%; (second compound 10 µM, first compound 0.949 µM) 53%; (second compound 10 µM, first compound 3 µM) 44.8%.
`Nc1ccn(C2OC(CO)C(O)C2(F)F)c(=O)n1` (stereo unspecified): the viability, T/C reads like this: (compound 0.0316 µM) 11.7% and 10.6% and 9.71%; (compound 0.1 µM) 9.82% and 10.9% and 7.67%; (compound 0.316 µM) 9.66% and 9.32% and 10.4%; (compound 1 µM) 10.1% and 11.1% and 8.88%; (compound 3.16 µM) 9.41% and 11.4% and 8.79%; (compound 10 µM) 7.29% and 6.09% and 6.67%. Besides, the IC50 (curve of compound) is less than 31.6 nM.
For the molecule `CC(C)c1c(-c2ccccc2)nc2c(C#N)c[nH]n2c1=O`, the viability, T/C is 113% and 103% (2×) (compound 0.0316 µM); 117% and 104% and 107% (compound 0.1 µM); 105% (2×) and 106% (compound 0.316 µM); 115% and 91% and 98.9% (compound 1 µM); 106% and 102% and 99.9% (compound 3.16 µM); 95.3% and 96% and 107% (compound 10 µM). Where the note is “curve of compound”, the IC50 was greater than 10000 nM.

Source of the values: PubChem BioAssay AID1918994 (Molecular Pharmacology Branch, DTP, NCI, 2023).
